Data reported in patent US6274333A (Sanofi-Synthelabo, priority 1997, dated 2001).
pIC50: −log10 of the molar value. Like-named read-outs stand apart in the source and are kept apart here.

Legend:
[1] = target: T1, hNT-R2 (Homo sapiens, UniProt O95665); experiment: inositol phosphate (IP3) production in CHO-2076.62 (hNT-R2) line; type: cell-based
Source text: The CHO-2076.62 (hNT-R2) line was used to study the signalization mechanisms involved.

[2] = target: T1, hNT-R2; experiment: intracellular Ca^2+ concentration in CHO-2076.62 (hNT-R2) line; type: cell-based; details: same response in the absence of extracellular calcium
Source text: In principle, this increase in the concentration of intracellular calcium ions is due to the release of internal reservoirs and not to the influx of extracellular calcium since the same response was found in the absence of extracellular calcium.

[3] = target: T1, hNT-R2; experiment: microphysiometry (Cytosensor) with CHO 2076.62 (hNT-R2) cells; type: cell-based
Description: The microphysiometry experiments were carried out with the Cytosensor Microphysiometer (Molecular Devices, Menlo Park, Calif.). Each chamber of the instrument containing 3×10^5 cells was perfused with DMEM medium (Sigma, St. Louis, Mo.) containing 40 mM NaCl at 37° C. The rate of acidification was measured every 60 seconds (flowrate […]). 15-second injections of agonists were carried out. For the inhibition experiments, cells were exposed to the antagonists for 30 minutes before being perfused with the agonist.

[4] = system: analgesia induced by NT; details: mice; cited from earlier work
[5] = system: hypothermia induced by NT; details: mice; cited from earlier work
[6] = system: analgesia induced by NT; details: rats; cited from earlier work
[7] = system: cloned receptor; details: cited from earlier work
[8] = target: T2, rNT-R2 receptor (Rattus norvegicus, UniProt Q63384); experiment: displacement of ^125 I-neurotensin from rNT-R2 expressed in COS cells; type: binding
T2 construct: rNT-R2 receptor expressed in COS-3 cells after transfection of the cloned cDNA; expressed in transfected cells; vector pSVL-rNT-R2
T2 sequence (Q63384 1-416): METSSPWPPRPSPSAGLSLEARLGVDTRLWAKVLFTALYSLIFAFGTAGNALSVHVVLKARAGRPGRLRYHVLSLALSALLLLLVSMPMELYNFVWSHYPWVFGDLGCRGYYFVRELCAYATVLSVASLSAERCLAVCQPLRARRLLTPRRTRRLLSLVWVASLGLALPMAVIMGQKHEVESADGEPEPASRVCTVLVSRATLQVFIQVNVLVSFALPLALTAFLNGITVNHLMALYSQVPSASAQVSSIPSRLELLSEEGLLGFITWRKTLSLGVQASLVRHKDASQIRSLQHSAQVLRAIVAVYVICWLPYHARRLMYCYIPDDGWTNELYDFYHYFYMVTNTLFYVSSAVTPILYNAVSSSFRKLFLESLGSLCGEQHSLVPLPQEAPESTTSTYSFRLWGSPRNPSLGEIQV
Description: BSA (bovine serum albumin), PMSF (phenylmethylsulphonyl fluoride) and 1,10-phenanthroline are marketed by Sigma. […] Levocabastine was obtained from Janssen Pharmaceutica.
(§1) The pharmacological characterization was carried out using […] cells transfected with pSVL-rNT-R2 recombinant vector. Three days after transfection, the cell monolayers were washed twice with 50 mM Tris-HCl pH 7.5, 0.1% BSA, 0.1% NaN3, 1 mM 1,10-phenanthroline (binding buffer) before binding to the radioligand.
After incubation for one hour at room temperature, the medium was aspirated and the cell monolayers were washed twice with the incubation buffer. Finally, the cells were solubilized with 1 ml of 1N NaOH and the bound radioactivity was evaluated.

[9] = system: hypothermia induced by NT; details: rats; cited from earlier work
[10] = system: HT29 cells; details: antagonism of neurotensin effect in vitro, read-out: IC50, formation of IP1 in HT29 cells; cited from earlier work
[11] = system: release of acetylcholine in rat striatum; details: cited from earlier work
[12] = system: rotation in mice; details: cited from earlier work
[13] = system: type-1 receptor; details: cited from earlier work
[14] = system: NT-1R; details: CHO cells transfected with NT-1R; cited from earlier work
[15] = target: T2, rNT-R2 receptor; experiment: saturation binding of ^125 I-neurotensin to rNT-R2 expressed in COS cells; details: Scatchard analysis
Description: BSA (bovine serum albumin), PMSF (phenylmethylsulphonyl fluoride) and 1,10-phenanthroline are marketed by Sigma. The selective, non-peptide antagonist SR 48692 was synthesized by Sanofi Recherche, France. Levocabastine was obtained from Janssen Pharmaceutica.
as §1
Saturation experiments were carried out in 1 ml of binding buffer containing ^125 I-neurotensin over a range from 0.05 to 14.5 nM. After incubation for one hour at room temperature, the medium was aspirated and the cell monolayers were washed twice with the incubation buffer. Finally, the cells were solubilized with 1 ml of 1N NaOH and the bound radioactivity was evaluated. The non-specific binding was defined as being the binding in the presence of a (500-fold) excess of unlabelled ligand and, under these conditions, was less than 1% of the total radioactivity.

[16] = system: untransfected cells, or cells transfected with the DNA vector alone; experiment: binding of radiolabelled neurotensin to untransfected or vector-transfected COS cells
[17] = 0.2 nM ^125 I-neurotensin, rNT-R2 in COS cells, read-out: IC50 (apparent), competition with ^125 I-neurotensin
[18] = binding with the type-1 receptor

T1 sequence (O95665 whole entry A54V): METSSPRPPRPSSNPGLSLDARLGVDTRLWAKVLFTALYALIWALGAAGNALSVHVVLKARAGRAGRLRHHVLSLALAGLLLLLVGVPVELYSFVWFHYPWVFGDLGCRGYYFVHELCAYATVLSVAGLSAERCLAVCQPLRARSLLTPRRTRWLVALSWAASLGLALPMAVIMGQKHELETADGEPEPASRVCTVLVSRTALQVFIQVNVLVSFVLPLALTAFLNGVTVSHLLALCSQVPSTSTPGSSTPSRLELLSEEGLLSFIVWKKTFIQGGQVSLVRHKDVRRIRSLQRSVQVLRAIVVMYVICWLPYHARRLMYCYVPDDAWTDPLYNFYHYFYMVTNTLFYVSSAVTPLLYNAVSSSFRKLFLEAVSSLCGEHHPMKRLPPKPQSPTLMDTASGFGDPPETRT

In the case of `COc1cccc(OC)c1-c1cc(C(=O)NC2(C(=O)O)C3CC4CC(C3)CC2C4)nn1-c1ccc(C(=O)N(C)CCCN(C)C)cc1C(C)C` (centres unmarked) [SR142948], the “increase in IP3” value [1] was “slight and transient (20-second) increase” and the “intracellular concentration of Ca^2+ response” value [2] was “significant response”.

In the case of `COc1cccc(OC)c1-c1cc(C(=O)NC2(C(=O)O)C3CC4CC(C3)CC2C4)nn1-c1ccnc2cc(Cl)ccc12` (centres unmarked) [SR 48692, {2-[(1-(7-chloro-4-quinolinyl)-5-(2,6-di-methoxyphenyl)pyrazol-3-yl)carbonylamino]tricyclo-(3.3.1.1.3.7)decane-2-carboxylic} acid], the “inhibition of the agonist effect of SR142948” value ([3]; CHO 2076.62 (hNT-R2), SR48692 at doses at which there is no agonist effect) is listed as “antagonized”, the “relative effectiveness at inhibiting the effect of SR142948” value ([3]; inhibition curves, SR48692 versus neurotensin) is listed as “more effective than neurotensin” and the “effect on analgesia induced by NT” value [4] is listed as “insensitive”. The “effect on hypothermia induced by NT” value [5] was “insensitive”, the “effect on analgesia induced by NT” value [6] was “insensitive” and the “intracellular concentration of Ca^2+ response” value [2] was “significant response”. For the same compound, the “inhibition of the binding of NT to the cloned receptor” value [7] was “inhibits the binding of NT to the cloned receptor”, the pIC50 [8, 17] was 7.65 and the “effect on hypothermia induced by NT” value [9] was “insensitive”.

For `COc1cccc(OC)c1-c1cc(C(=O)NC2(C(=O)O)C3CC4CC(C3)CC2C4)nn1-c1ccc(C(=O)N(C)CCCN(C)C)cc1C(C)C.Cl` (centres unmarked) [SR 142948 A, 2-{(5-(2,6-dimethoxyphenyl)-1-(4-(N-(3-dimethylamino-propyl)-N-methylcarbamoyl)-2-isopropylphenyl)-1H-pyrazole-3-carbonyl)amino}adamantane-2-carboxylic acid hydrochloride], the “effect on analgesia induced by NT” value [4] is given as “antagonizes”, the pIC50 [10] is given as 8.41 and the “effect on hypothermia induced by NT” value [5] is given as “antagonizes”. The “effect on analgesia induced by NT” value [6] was “antagonizes”, the “antagonism of neurotensin effect: release of acetylcholine” value [11] was “antagonizes” and the “antagonism of neurotensin effect: rotation” value [12] was “antagonizes”. The “displacement of [^3 H]-SR 48692” value [13, 18] was “completely displaces”, the “displacement of [^125 I]-neurotensin” value [13, 18] was “completely displaces” and the affinity ([13]; type-1 receptor (Gully et al.)) was “of the order of a nanomole”. The “antagonism of neurotensin mobilization of intracellular calcium ions” value [14] was “antagonizes” and the “effect on hypothermia induced by NT” value [9] was “antagonizes”.

Work on `C[C@@H]1CN([C@H]2CC[C@](C#N)(c3ccc(F)cc3)CC2)CC[C@]1(C(=O)O)c1ccccc1` [levocabastine] yielded a pIC50 [8] of 8.00.

In the case of “^125 I-neurotensin: ^125 I-[Tyr^3 ]-labelled neurotensin marketed by NEN”, the “binding capacity (Bmax)” value [15] was 180,000±3000 sites per cell and the “binding to untransfected cells or cells transfected with vector alone” value [16] was “did not bind”.

Compound “neuromedin N: ligand related to neurotensin, used as competitor (IPYIL; Neuromedin N; UniProt P30990 144-148, looked up)” has a pIC50 [8, 17] of 8.29.
